Data from patent publication US10822323B2, “Acid labile surfactants” (Waters Technologies Corporation, priority 2018, dated 2020).
Values after ≈ are worked out from the molar mass of the structure shown.

Experiment: Dissolution study of hydrophobic moieties in acetonitrile / 20 mM ammonium bicarbonate buffer solutions
Format: physicochemical
Details: for Observed Solubility: 21° C.; for solubility: 21 °C, aqueous with cosolvent or surfactant or cyclodextrin, thermodynamic from solid
Description: A dissolution study was performed on compounds 3 (commercially available—Sigma Aldrich P/N 172839 99%) 6, and 8 (Synthesis described above) at 21° C. in different buffer solutions containing a mixture of standard chromatographic solvents, e.g., acetonitrile and 20 mM aqueous […]. 20 mM aqueous ammonium bicarbonate was made by dissolving 474 mg ammonium bicarbonate in 300 mL MiliQ water.

[1] = 10% acetonitrile buffer solution, stated weight in stated buffer volume (3: 180 mL; 6: 120 mL; 8: 24 mL)
[2] = 30% acetonitrile buffer solution, stated weight in stated buffer volume (3: 50 mL; 6: 10 mL; 8: 1.4 mL)
[3] = 10 mL acetonitrile and 90 mL 20 mM ammonium bicarbonate (10% acetonitrile)
[4] = 30 mL acetonitrile and 70 mL 20 mM ammonium bicarbonate (30% acetonitrile)

| Structure (SMILES) | Observed Solubility [1] | Observed Solubility [2] | solubility [3] | solubility [4] | Observed Solubility (30% acetonitrile buffer solution, stated weight in stated buffer volume (3: 50 mL; 6: 10 mL; 8: 1.4 mL), 70 mg in 10 mL buffer) | Observed Solubility (30% acetonitrile buffer solution, stated weight in stated buffer volume (3: 50 mL; 6: 10 mL; 8: 1.4 mL), 90 mg in 10 mL buffer) |
| --- | --- | --- | --- | --- | --- | --- |
| CCCCCCCCCCCC(C)=O [Compound 3, reference compound] | At 6 mg: Not dissolved | At 30 mg: Not dissolved | < 0.03 mg/mL | < 1 mg/mL | – | – |
| CCCCCCCCCCCOCC(O)CO (stereo not drawn) [Compound 6, 3-(undecyloxy)-1,2-propanediol] | At 6 mg: Not dissolved | – | < 0.05 mg/mL | ~8 mg/mL (≈ 32.5 mM) | At 70 mg: Dissolved | At 90 mg: Not dissolved |
| CCCCCCCCCOCC(O)CO (stereo not drawn) [Compound 8, 3-nonoxypropane-1,2-diol] | – | At 200 mg: Dissolved | ~0.5 mg/mL (≈ 2.29 mM) | ~140 mg/mL (≈ 641 mM) | – | – |
